A short description of data set [1]: Stability of 188Re(I)-tricarbonyl precursor over time (HPLC). Type of data set: physicochemical. The conditions noted are these: for 3 hours, then began to decay. As for the experimental part: The HPLC measurement was conducted in order to separate the ^188Re (I)-tricarbonyl precursor synthesized in Embodiment 1.
The HPLC measurement was carried out with a WATERS system provided with a radiometric detector using methanol (hereinafter, referred to as ‘solvent A’) and 0.05 M triethylammoniumphosphate buffer (TEAP, pH 2.25, hereinafter referred to as ‘solvent B’) using two pumps each equipped with a reverse phase Xterra™ RP18 5 μm column (4.6×250 mm, Waters, Ireland).
The solvent conditions for HPLC were as follows: in the range of 0 to 5 minutes, 100% solvent A began to flow and was then converted into 100% solvent B; in the range of 5 to 8 minutes, 100% solvent B began to flow and was then converted into 25% solvent A and 75% solvent B; in the range of 8 to 11 minutes, 25% solvent A and 75% solvent B were converted into 34% solvent A and 66% solvent B; in the range of 11 to 22 minutes, 34% solvent A and 66% solvent B were converted into 100% solvent A; and in the range of 22 to 24 minutes, 100% solvent A was converted into 100% solvent B. The flow rate of solvent was maintained at 1 ml/min for the entire time. In addition, in order to rapidly bring the column to a state of equilibrium, during the next 5 min, the solvent was supplied at 2 ml/min for 2 minnutes and then at the former solvent flow rate for 3 min. […]

The format of data set [2] is in vitro ADME, human. As for the experimental part:
The ^188Re-tricarbonyl histidine complex prepared in Embodiment 2 was dissolved in physiological saline to prepare 37 MBq/ml of a test solution. Of this solution, 25 μl of the solution was added to 475 μl of human plasma (sigma) and then cultured at 37° C. for 24 hours. After the lapse of 0.5, 1, 2, 4 and 24 hours, the fraction of solution was subjected to TLC measurement. As a development solvent, a solvent mixture comprising methanol and conc. hydrochloric acid mixed at a 99:1 ratio was used.
When the fraction of solution was developed, the labeled complex was shown in the developed portion, and the complex reacted with the plasma protein was shown in the zero point, which were confirmed through HPLC. The HPLC measurement was conducted in the same manner as in Experimental Example 2. In addition, the plasma protein binding was measured using an ITLC isotope scanner.

Consider “^188Re-tricarbonyl precursor [^188Re (I)-tricarbonyl precursor]”, for which the “fraction of precursor stable” value in data set [1] is given as at least 95%.

“^188Re (I)-tricarbonyl histidine complex [^188Re-tricarbonyl histidine complex]”: in data set [2], the “plasma stability (in words)” value was “high plasma stability”.

The values above are taken from patent US20070140959A1, “Method of preparing rhenium-tricarbonyl complex and its precursor” (priority 2005, published 2007).
